Experimental findings from patent publication US7371733B2, “Anti bacterial compounds” (Utah State University, priority 2006, dated 2008) are described below.

For one experiment, the system named is E. coli (TG1). Put plainly: MIC, standard dilution and diffusion assay, aminoglycoside susceptible strain. Particulars: for MIC: Escherichia coli; for Minimum Inhibitory Concentrations (MIC): Table 2 entry 2, E. coli (TG1) aminoglycoside susceptible strain.
The test system of experiment [1] is E. coli (TG1) (pTZ19U-3). Description: microbe, parasite or virus in culture. The following applies: Escherichia coli.
Experimental: (§1) After the synthesis was completed, both representative aminoglycosides were assayed in standard dilution and diffusion assay against aminoglycoside susceptible and resistant strains of Escherichia coli using amikacin, kanamycin, ribostamycin, and butirosin as the controls. One resistant strain is equipped with the pTZ19-3 plasmid encoded for APH(3′)-I, which renders resistance to kanamycin, neomycin, lividomycin, paromomycin, and ribostamycin. The other resistant strain is equipped with the pSF815 plasmid encoded for AAC(6′) and APH(2″), which produces a bifunctional enzyme that catalyzes acetylation of amino group at C-6′ and phosphorylation of hydroxyl group at C-2″ position. This bifunctional enzyme enables bacteria to acquire resistance against gentamycin, amikacin, tobramycin, netilmicin, and kanamycin.
(§2) E. coli (pSF815) and E. coli (pTZ19U-3) are laboratory resistant strains using E. coli (TG1) as the host.
Experiment [2] relates to E. coli (TG1) (pSF815). Particulars: for Minimum Inhibitory Concentration: Table 1, E. coli (TG1) (pSF815), plasmid encoded for AAC6′/APH2″; for Minimum Inhibitory Concentrations (MIC): Table 2 entry 3, E. coli (TG1) pSF815 plasmid encoded for AAC(6′)/APH(2″).
Experimental: as §1, §2
Experiment [3] deals with Escherichia coli (ATCC 25922). Put plainly: MIC, standard reference strain. The following applies: for MIC: Escherichia coli, ATCC25922, read-out: Minimum Inhibitory Concentrations (MIC); for Minimum Inhibitory Concentrations (MIC): Table 2 entry 1, Escherichia coli (ATCC 25922).
Text: as §2
Experiment [4] has as its system Staphylococcus aureus (ATCC 33591) (MRSA). Description: MIC, methicillin-resistant S. aureus. Particulars: for Minimum Inhibitory Concentrations (MIC): Table 2 entry 7, Staphylococcus aureus (ATCC 33591) (MRSA); for MIC: Staphylococcus aureus, ATCC33591|MRSA, read-out: Minimum Inhibitory Concentrations (MIC).
Text: as §2
Experiment [5] has as its system K. pneumoniae (ATCC 13883). Put plainly: MIC, standard reference strain. Particulars: for MIC: Klebsiella pneumoniae, ATCC13883, read-out: Minimum Inhibitory Concentrations (MIC); for Minimum Inhibitory Concentrations (MIC): Table 2 entry 6, K. pneumoniae (ATCC 13883).
Text: as §2
The subject of experiment [6] is E. coli (TG1) (pSF815). Description: microbe, parasite or virus in culture. Particulars: Escherichia coli.
Experimental: as §1, §2
In experiment [7] the test system is Pseudomonas aeruginosa (ATCC 27853). The following applies: for Minimum Inhibitory Concentrations (MIC): Table 2 entry 9, Pseudomonas aeruginosa (ATCC 27853).
Text: as §2
The test system of experiment [8] is Klebsiella pneumoniae (ATCC 700603). Particulars: Table 2 entry 5.
Text: as §2
For another experiment, the system named is S. aureus (ATCC 25923). Put plainly: MIC, standard reference strain. Particulars: for MIC: Staphylococcus aureus, ATCC25923, read-out: Minimum Inhibitory Concentrations (MIC); for Minimum Inhibitory Concentrations (MIC): Table 2 entry 8, S. aureus (ATCC 25923).
Experiment [9] relates to E. coli (TG1) (pTZ19U-3). The following applies: for Minimum Inhibitory Concentration: Table 1, E. coli (TG1) (pTZ19U-3), plasmid encoded for APH(3′)-I; for Minimum Inhibitory Concentrations (MIC): Table 2 entry 4, E. coli (TG1) pTZ19U-3 plasmid encoded for APH(3′)-I.
Experimental: as §1, §2
The test system of experiment [10] is Klebsiella pneumoniae (ATCC 700603). Put plainly: microbe, parasite or virus in culture. Particulars: ATCC700603, read-out: Minimum Inhibitory Concentrations (MIC).
Text: as §2
For experiment [11], the system named is Pseudomonas aeruginosa (ATCC 27853). Put plainly: microbe, parasite or virus in culture. The following applies: ATCC27853, read-out: Minimum Inhibitory Concentrations (MIC).
Text: as §2
Setting [12] is: read-out: Minimum Inhibitory Concentration.
[13] abbreviates: read-out: Minimum Inhibitory Concentrations (MIC).

≈ marks a conversion by molar mass, not a printed value. Read-outs that look alike come from different tables or passages of the source.

Take `CC1O[C@@H](O[C@@H]2C(O)C(N)CC(N)C2O[C@H]2OC(CN)[C@@H](O)C(O)C2N)C(O)C(O)[C@@H]1N` (stereo partly shown) [TC005, pyranmycin]: the MIC in the experiment with E. coli (TG1) (setting [12]) and with E. coli (TG1) (pTZ19U-3) [1] (setting [12]) was 8 µg/mL (≈ 17.1 µM) each time. Further, the “Minimum Inhibitory Concentration” value in the experiment on E. coli (TG1) (pSF815) [2] is given as “Inactive”.
With `NC[C@H]1O[C@H](O[C@H]2[C@H](O[C@@H]3O[C@H](CO)[C@@H](O)[C@H]3O)[C@@H](O)[C@H](N)C[C@@H]2N)[C@H](N)[C@@H](O)[C@@H]1O` [Ribostamycin, ribostamycin], the MIC in the experiment on E. coli (TG1) (setting [12]) came to 2 µg/mL (≈ 4.4 µM); with E. coli (TG1) (setting [13]), 2 µg/mL (≈ 4.4 µM); in experiment [3] it was 8 µg/mL (≈ 17.6 µM); in experiment [5], 4 µg/mL (≈ 8.8 µM); in the experiment on E. coli (TG1) (pSF815) [6] (setting [12]) it was 16 µg/mL (≈ 35.2 µM); in the experiment with E. coli (TG1) (pSF815) [6] (setting [13]) it was 16 µg/mL (≈ 35.2 µM). The MIC turned out to be 32 µg/mL (≈ 70.4 µM) in the experiment with E. coli (TG1) (pTZ19U-3) [1] (setting [13]) and 8 µg/mL (≈ 17.6 µM) in the experiment with S. aureus (ATCC 25923). Moreover, the “Minimum Inhibitory Concentrations (MIC)” value in experiment [4], in [7] and in [8] was “Inactive” throughout. The “Minimum Inhibitory Concentration” value with E. coli (TG1) (pTZ19U-3) [9] is recorded as “Inactive”.
Turning to `CC1O[C@@H](O[C@H]2C(O[C@H]3OC(CN)[C@@H](O)[C@H](O)C3N)C(N)C[C@@H](NC(=O)[C@@H](O)CCN)C2OCCN)C(O)[C@@H](O)[C@@H]1N` (stereo partly shown) [JT050], the MIC in the experiment with E. coli (TG1) (setting [12]) came out at 8 µg/mL (≈ 13.1 µM); in the experiment on E. coli (TG1) (pSF815) [6] (setting [12]), 2 µg/mL (≈ 3.27 µM); in the experiment with E. coli (TG1) (pTZ19U-3) [1] (setting [12]), 4 µg/mL (≈ 6.54 µM).
`CC1O[C@@H](O[C@@H]2C(O)[C@H](NC(=O)[C@@H](O)CCN)CC(N)[C@H]2O[C@H]2OC(CN)[C@@H](O)[C@H](O)C2N)C(O)[C@@H](O)[C@@H]1N` (stereo partly shown) [JT005]: the MIC in the experiment on E. coli (TG1) (setting [12]) worked out at 4 µg/mL (≈ 7.03 µM); in the experiment on E. coli (TG1) (setting [13]), 4 µg/mL (≈ 7.03 µM); in experiment [5], 2 µg/mL (≈ 3.52 µM); in the experiment with E. coli (TG1) (pSF815) [6] (setting [12]), 4 µg/mL (≈ 7.03 µM); in the experiment with E. coli (TG1) (pSF815) [6] (setting [13]), 4 µg/mL (≈ 7.03 µM); with E. coli (TG1) (pTZ19U-3) [1] (setting [12]), 4 µg/mL (≈ 7.03 µM). The MIC in the experiment with E. coli (TG1) (pTZ19U-3) [1] (setting [13]) was 4 µg/mL (≈ 7.03 µM); in experiment [10], 1 to 2 µg/mL (≈ 1.76 to 3.52 µM). Moreover, the “Minimum Inhibitory Concentrations (MIC)” value in experiment [4] and in experiment [7] was “Inactive” each time.
For the molecule `NCC[C@H](O)C(=O)N[C@@H]1C[C@H](N)[C@@H](O[C@H]2O[C@H](CN)[C@@H](O)[C@H](O)[C@H]2O)[C@H](O)[C@H]1O[C@H]1O[C@H](CO)[C@@H](O)[C@H](N)[C@H]1O` [Amikacin, amikacin], the MIC in the experiment on E. coli (TG1) (setting [12]) was 1 µg/mL (≈ 1.71 µM); in the experiment on E. coli (TG1) (setting [13]), 1 µg/mL (≈ 1.71 µM); in experiment [3], 1 µg/mL (≈ 1.71 µM); in experiment [4], 16 µg/mL (≈ 27.3 µM); in experiment [5], 1 µg/mL (≈ 1.71 µM); in the experiment on E. coli (TG1) (pSF815) [6] (setting [12]) it was 1 µg/mL (≈ 1.71 µM). Further, the MIC was 1 µg/mL (≈ 1.71 µM) with E. coli (TG1) (pSF815) [6] (setting [13]); 0.5 µg/mL (≈ 0.854 µM) with E. coli (TG1) (pTZ19U-3) [1] (setting [12]); 0.5 µg/mL (≈ 0.854 µM) in the experiment with E. coli (TG1) (pTZ19U-3) [1] (setting [13]); 0.5 to 1 µg/mL (≈ 0.854 to 1.71 µM) in experiment [10]; 1 µg/mL (≈ 1.71 µM) with S. aureus (ATCC 25923); 0.5 to 1 µg/mL (≈ 0.854 to 1.71 µM) in experiment [11].
butirosin: the “Minimum Inhibitory Concentration” value with E. coli (TG1) (Table 1, E. coli (TG1)) is 0.5 µg/mL; in the experiment with E. coli (TG1) (pSF815) [2], 0.5 µg/mL; in the experiment with E. coli (TG1) (pTZ19U-3) [9] it was 0.5 µg/mL. Moreover, the “Minimum Inhibitory Concentrations (MIC)” value in the experiment on E. coli (TG1) is 1 µg/mL; in experiment [3], 2 µg/mL; in experiment [4], “Inactive”; in experiment [5] it was 0.5 to 1 µg/mL; in experiment [7] it was “Inactive”; in the experiment on E. coli (TG1) (pSF815) [2], 0.25 µg/mL. For the same molecule, the results for the “Minimum Inhibitory Concentrations (MIC)” value (in [8]; with S. aureus (ATCC 25923); with E. coli (TG1) (pTZ19U-3) [9]) were 0.5 µg/mL, 2 µg/mL and 0.5 µg/mL, respectively.
As for gentamicin, the “Minimum Inhibitory Concentrations (MIC)” value in the experiment with E. coli (TG1) was 2 µg/mL; in [3], 2 µg/mL; in [4] it was 4 µg/mL; in experiment [5], 1 µg/mL; in experiment [7], 0.5 to 1 µg/mL; in the experiment on E. coli (TG1) (pSF815) [2], “Inactive ^k”. Also, the “Minimum Inhibitory Concentrations (MIC)” value in [8] is 8 to 16 µg/mL; in the experiment with S. aureus (ATCC 25923), 0.5 µg/mL; with E. coli (TG1) (pTZ19U-3) [9], 1 µg/mL.
In the case of `C[C@H]1O[C@@H](O[C@@H]2[C@@H](O)[C@H](NC(=O)[C@@H](O)CCN)C[C@H](N)[C@H]2O[C@H]2O[C@H](CN)CC[C@H]2N)[C@H](O)[C@@H](O)[C@@H]1N` [pyrankacin], the MIC with E. coli (TG1) (setting [13]) was found to be 4 µg/mL (≈ 7.45 µM); in experiment [3] it was 4 µg/mL (≈ 7.45 µM); in experiment [4] it was 8 µg/mL (≈ 14.9 µM); in experiment [5], 2 µg/mL (≈ 3.73 µM); with E. coli (TG1) (pSF815) [6] (setting [13]), 1 µg/mL (≈ 1.86 µM); in the experiment on E. coli (TG1) (pTZ19U-3) [1] (setting [13]), 1 µg/mL (≈ 1.86 µM). The MIC in [10] came out at 1 µg/mL (≈ 1.86 µM); with S. aureus (ATCC 25923), 2 µg/mL (≈ 3.73 µM); in [11] it was 2 µg/mL (≈ 3.73 µM). The “activity against P. aeruginosa, in words” value in experiment [7] (text statement summarising Table 2) was “active”.
Regarding neomycin, the “Minimum Inhibitory Concentrations (MIC)” value in the experiment on E. coli (TG1) is 8 µg/mL; in experiment [3], 4 µg/mL; in experiment [4], “Inactive”; in experiment [5] it was 2 µg/mL; in experiment [7], “Inactive”; in the experiment on E. coli (TG1) (pSF815) [2] it was 2 µg/mL. For the same molecule, the “Minimum Inhibitory Concentrations (MIC)” value in [8] is “Inactive”; in the experiment with S. aureus (ATCC 25923), 1 µg/mL; in the experiment with E. coli (TG1) (pTZ19U-3) [9], “Inactive”.
For `CC1O[C@@H](O[C@@H]2C(OCCN)C(N)CC(N)C2O[C@H]2OC(CN)[C@@H](O)C(O)C2N)C(O)C(O)[C@@H]1N` (stereo partly shown) [TC050], the MIC with E. coli (TG1) (setting [12]) and in the experiment on E. coli (TG1) (pTZ19U-3) [1] (setting [12]) was 8 µg/mL (≈ 15.7 µM) throughout. Further, the “Minimum Inhibitory Concentration” value with E. coli (TG1) (pSF815) [2] is recorded as “Inactive”.
Consider `CC1O[C@@H](O[C@H]2C(O[C@H]3OC(CN)CCC3N)C(N)C[C@@H](N)C2O)C(O)[C@@H](O)[C@@H]1N` (stereo partly shown) [RR501, 3′,4′-Dideoxy Pyranmycin], for which the MIC in the experiment on E. coli (TG1) (setting [12]) was 8 µg/mL (≈ 18.4 µM); in the experiment with E. coli (TG1) (setting [13]), 8 µg/mL (≈ 18.4 µM); in experiment [4], 4 µg/mL (≈ 9.18 µM); in experiment [5], 2 to 4 µg/mL (≈ 4.59 to 9.18 µM); with E. coli (TG1) (pSF815) [6] (setting [12]), 4 µg/mL (≈ 9.18 µM); in the experiment with E. coli (TG1) (pSF815) [6] (setting [13]) it was 4 µg/mL (≈ 9.18 µM). In addition, the results for the MIC (in the experiment on E. coli (TG1) (pTZ19U-3) [1] (setting [12]); in the experiment with E. coli (TG1) (pTZ19U-3) [1] (setting [13]); in [10]) were 4 µg/mL (≈ 9.18 µM), 4 µg/mL (≈ 9.18 µM) and 2 to 4 µg/mL (≈ 4.59 to 9.18 µM), respectively. In addition, in experiment [7], the “Minimum Inhibitory Concentrations (MIC)” value is reported as “Inactive”. In the experiment on E. coli (TG1) (pTZ19U-3) [9] (text statement summarising Table 1), the “activity against resistant bacteria equipped with APH(3′), in words” value was “active”.
